Assay results: patent publication US8778871B2 (Takeda Pharmaceutical Company Limited, priority 2004, dated 2014)
Starred links: 1 amine or outer side, 2 acyl side, 3 side chain; linkers in the order of their positions; H or OH if unused. Non-standard residues stand in square brackets, D forms with d. Residues, ends and D or L forms follow the SMILES beside them. X11 = NC(=O)C[C@@H](CN([C@@H](Cc1c[nH]c2ccccc12)C(=O)[*:2])[*:1])N[*:3]; X1 = NC(=O)C[C@@H](C(=O)[*:2])N(C[C@@H](N)Cc1ccc(O)cc1)[*:1]; X8 = O=C([C@H](Cc1ccc2ccccc2n1)N[*:1])[*:2]; Arg(Me) = CNC(=N)NCCC[C@H](N)C(=O)O; d3Pal = N[C@H](Cc1cccnc1)C(=O)O; d4Pal = N[C@H](Cc1ccncc1)C(=O)O; Cha = N[C@@H](CC1CCCCC1)C(=O)O; azaGly = NNC(=O)O

Molecular target: T1, hOT7T175 (Homo sapiens, UniProt Q969F8)
T1 construct: expressed in transfected cells
T1 sequence (Q969F8 whole entry L364H): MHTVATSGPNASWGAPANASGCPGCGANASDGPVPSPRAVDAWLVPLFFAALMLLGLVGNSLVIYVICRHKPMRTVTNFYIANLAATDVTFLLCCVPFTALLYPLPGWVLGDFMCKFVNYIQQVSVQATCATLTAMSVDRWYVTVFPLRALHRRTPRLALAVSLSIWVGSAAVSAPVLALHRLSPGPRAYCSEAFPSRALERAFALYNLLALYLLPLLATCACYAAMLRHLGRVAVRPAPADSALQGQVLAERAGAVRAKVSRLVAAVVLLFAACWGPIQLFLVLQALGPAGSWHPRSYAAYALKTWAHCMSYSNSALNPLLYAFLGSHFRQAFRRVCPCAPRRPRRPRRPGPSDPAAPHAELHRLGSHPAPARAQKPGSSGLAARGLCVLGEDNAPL
Assay: Intracellular Ca ion level-increasing activity using FLIPR (180 seconds; specific activity to Metastin (1-54))
Assay type: cell-based
Conditions: hOT7T175/CHO, change in intracellular calcium ion level for 180 seconds, Tables 21-23
Description: In accordance with the method described in JPA 2000-312590, the intracellular Ca ion level-increasing activity was measured using FLIPR. […]
The intracellular Ca ion level-increasing activity of the synthetic peptide in hOT7T175/CHO was determined using FLIPR (Molecular Devices, Inc.).
hOT7T175/CHO was subcultured in DMEM supplemented with 10% dialyzed fetal bovine serum (hereinafter abbreviated as dFBS) and provided for the experiment (hereinafter abbreviated as 10% dFBS/DMEM). The hOT7T175/CHO was suspended in 10% dFBS-DMEM in 15×10^4 cells/ml. The suspension was inoculated on a 96-well plate for FLIPR (Black Plate Clear Bottom, Coster, Inc.) at 200 μl each (3.0×10^4 cells/200 μl), followed by incubation at 37° C. overnight in a 5% CO2 incubator. The cells thus incubated were used (hereinafter simply referred to as the cell plate). Then, 21 ml of HANKS/HBSS (9.8 g of HANKS', 0.35 g of sodium hydrogencarbonate, 20 ml of 1M HEPES; after adjusting the pH to 7.4 with 1N sodium hydroxide, the mixture was subjected to sterilization through a filter), 210 μl of […] Probenecid and 210 μl of fetal bovine serum (FBS) were mixed (HANKS/HBSS-Probenecid-FBS).
Furthermore, 2 vials of Fluo3-AM (50 μg/vial) were dissolved in 21 μL of dimethylsulfoxide and 21 μL of 20% Pluronic acid. The resulting solution was added to and mixed with 10 ml of HANKS/HBSS-Probenecid-FBS described above. After the culture medium was removed, the mixture was dispensed onto the cell plate in 100 μl each/well, followed by incubation at 37° C. for an hour in a 5% CO2 incubator (pigment loading). The peptide was dissolved in dimethylsulfoxide in 1×10^−3 M. The peptide solution was diluted with HANKS'/HBSS containing 2.5 mM Probenecid and 0.2% BSA. The dilution was transferred to a 96-well plate for FLIPR (V-Bottom plate, Coster, Inc.) (hereinafter referred to as a sample plate). After completion of the pigment loading onto the cell plate, the cell plate washed 4 times with wash buffer, which was obtained by adding 2.5 mM Probenecid to HANKS'/HBSS, using a plate washer to leave 100 μL of wash buffer after the washing. The cell plate and the sample plate were set in FLIPR and 0.05 ml of a sample from the sample plate was automatically transferred to the cell plate with the FLIPR device to promote the cell response. A change in intracellular calcium ion level for 180 seconds was measured with passage of time.

CNC(=N)NCCC[C@H](NC(=O)[C@H](CC(C)C)NC(=O)NNC(=O)[C@H](Cc1ccccc1)NC(=O)[C@H](CO)NC(=O)[C@H](CC(N)=O)NC(=O)[C@H](CC1CCCCC1)NC(=O)[C@@H](CC(N)=O)NC(=O)[C@H](N)Cc1cccnc1)C(=O)N[C@@H](Cc1ccccc1)C(N)=O [Compound No. 290, D-Pya(3)-D-Asn-Cha-Asn-Ser-Phe-AzaGly-Leu-Arg(Me)-Phe-NH2] (H-[d3Pal][dN][Cha]NSF[azaGly]L[Arg(Me)]F-NH2)
intracellular Ca ion level-increasing activity [specific activity to Metastin (1-54)]: 1

CNC(=N)NCCC[C@H](NC(=O)[C@H](CC(C)C)NC(=O)NNC(=O)[C@H](Cc1ccccc1)NC(=O)[C@H](CO)NC(=O)[C@H](CC(N)=O)NC(=O)[C@H](CC1CCCCC1)NC(=O)[C@@H](Cc1ccc(O)cc1)NC(=O)[C@H](N)Cc1cccnc1)C(=O)N[C@@H](Cc1ccccc1)C(N)=O [Compound No. 291, D-Pya(3)-D-Tyr-Cha-Asn-Ser-Phe-AzaGly-Leu-Arg(Me)-Phe-NH2] (H-[d3Pal][dY][Cha]NSF[azaGly]L[Arg(Me)]F-NH2)
intracellular Ca ion level-increasing activity [specific activity to Metastin (1-54)]: 2

CC(C)C[C@H](NC(=O)CNC(=O)[C@H](Cc1ccccc1)NC(=O)[C@H](CO)NC(=O)[C@H](CC(N)=O)NC(=O)[C@H](Cc1c[nH]c2ccccc12)NC[C@H](CC(N)=O)NC(=O)[C@@H](N)Cc1ccc(O)cc1)C(=O)N[C@@H](CCCNC(=N)N)C(=O)N[C@@H](Cc1ccccc1)C(N)=O [Compound No. 295] (H-[X11](Tyr)NSFGLRF-NH2)
intracellular Ca ion level-increasing activity [specific activity to Metastin (1-54)]: 1

CNC(=N)NCCC[C@H](NC(=O)[C@H](CC(C)C)NC(=O)NNC(=O)[C@H](Cc1ccccc1)NC(=O)[C@H](CO)NC(=O)[C@H](CC(N)=O)NC(=O)[C@H](Cc1c[nH]c2ccccc12)NC(=O)[C@H](CC(N)=O)NC[C@@H](N)Cc1ccc(O)cc1)C(=O)N[C@@H](Cc1ccccc1)C(N)=O [Compound No. 299, TyrΨ(CH2NH)Asn-Trp-Asn-Ser-Phe-AzaGly-Leu-Arg(Me)-Phe-NH2] (H-[X1]WNSF[azaGly]L[Arg(Me)]F-NH2)
intracellular Ca ion level-increasing activity [specific activity to Metastin (1-54)]: 5

CNC(=N)NCCC[C@H](NC(=O)[C@H](CC(C)C)NC(=O)NNC(=O)[C@H](Cc1ccccc1)NC(=O)[C@H](CO)NC(=O)[C@H](CC(N)=O)NC(=O)[C@@H](Cc1c[nH]c2ccccc12)NC(=O)[C@H](CC(N)=O)NC[C@@H](N)Cc1ccc(O)cc1)C(=O)N[C@@H](Cc1ccccc1)C(N)=O [Compound No. 300, TyrΨ(CH2NH)Asn-D-Trp-Asn-Ser-Phe-AzaGly-Leu-Arg(Me)-Phe-NH2] (H-[X1][dW]NSF[azaGly]L[Arg(Me)]F-NH2)
intracellular Ca ion level-increasing activity [specific activity to Metastin (1-54)]: 5

CNC(=N)NCCC[C@H](NC(=O)[C@H](CC(C)C)NC(=O)NNC(=O)[C@H](Cc1ccccc1)NC(=O)[C@H](CO)NC(=O)[C@H](CC(N)=O)NC(=O)[C@H](Cc1ccc2ccccc2n1)NC(=O)[C@H](CC(N)=O)NC(=O)[C@H](N)Cc1ccc(O)cc1)C(=O)N[C@@H](Cc1ccccc1)C(N)=O [Compound No. 301, D-Tyr-Asn-Ala(2-Qui)-Asn-Ser-Phe-AzaGly-Leu-Arg(Me)-Phe-NH2] (H-[dY]N[X8]NSF[azaGly]L[Arg(Me)]F-NH2)
intracellular Ca ion level-increasing activity [specific activity to Metastin (1-54)]: 1

CNC(=N)NCCC[C@H](NC(=O)[C@H](CC(C)C)NC(=O)NNC(=O)[C@H](Cc1ccccc1)NC(=O)[C@H](CO)NC(=O)[C@H](CC(N)=O)NC(=O)[C@@H](Cc1ccncc1)NC(=O)[C@H](CC(N)=O)NC(=O)[C@H](N)Cc1ccc(O)cc1)C(=O)N[C@@H](Cc1ccccc1)C(N)=O [Compound No. 302, D-Tyr-Asn-D-Pya(4)-Asn-Ser-Phe-AzaGly-Leu-Arg(Me)-Phe-NH2] (H-[dY]N[d4Pal]NSF[azaGly]L[Arg(Me)]F-NH2)
intracellular Ca ion level-increasing activity [specific activity to Metastin (1-54)]: 2
